Source: patent US20080138291A1, “Sulfonamide Derivatives Having Carbonic Anhydrase Inhibiting Activity and their Use as Therapeutic and Diagnostic Agents” (UNION LIFE SCIENCES LTD., priority 2005, published 2008)

Tests used:
hCA I = hCA I (Homo sapiens, UniProt P00915); assay: CA inhibition, CO2 hydration method, isozyme I; assay type: biochemical; conditions: KI hCA I, Table 1, human cloned isozyme
MDCK-CA IX cells = assay: Binding of fluorescent sulfonamide to MDCK-CA IX cells (fluorescence microscopy); assay type: cell-based, canine; conditions: CA IX-positive and mock-transfected MDCK cells, normoxia or hypoxia 48 h
Text: (§1) Sulfonamide treatment of cells. […] Images were acquired by Nikon Coolpix 990.

[1] = tested on: HeLa cervical carcinoma cells; assay: Effect on extracellular pH of HeLa cells in hypoxia; assay type: cell-based; conditions: hypoxia 48 h, 1 mM
Procedure: Cell cultures. MDCK and HeLa cells as well as their transfected derivatives were grown in DMEM with 10% FCS (BioWhittaker, Verviers, Belgium) buffered with 22.4 mM bicarbonate and containing supplements as described before (Svastova, E.; et al.; Exp. Cell. Res. 2003, 290, 332-345) To maintain standard experimental conditions, the cells were always plated in 3 ml of culture medium at a density of 0.8−1×10^6 per 6 cm dish 24 h before the transfer to hypoxia (2% O2 and 5% CO2 balanced with N2) generated in a Napco 7000 incubator, where they were grown for additional 48 h (if not stated otherwise). Parallel normoxic dishes were incubated in air with 5% CO2.
as §1
Mean differences in the pH values determined in the treated versus control dishes are shown on the histogram with indicated standard deviations. The experiment was repeated three times using at least three parallel dishes for each sample.

[2] = tested on: SiHa cervical carcinoma cells; assay: Effect on extracellular pH of SiHa cells in hypoxia; assay type: cell-based; conditions: hypoxia 48 h, 1 mM
[3] = tested on: HeLa cervical carcinoma cells; assay: Binding of fluorescent sulfonamide to HeLa cells; conditions: hypoxic versus normoxic cells
Procedure: (§2) Sulfonamide treatment of cells. The sulfonamides were dissolved in PBS with 20% DMSO at 100 mM concentration and diluted in a culture medium to a required final concentration just before their addition to cells. Immediately after beginning of the treatment with sulfonamides, the cells were transferred to hypoxia and incubated for 48 h. Parallel cultures were maintained for the same time period in normoxia.

[4] = tested on: SiHa cervical carcinoma cells; assay: Binding of fluorescent sulfonamide to SiHa cells; conditions: hypoxic versus normoxic cells
Procedure: as §2

human red cells = assay: Ex vivo penetration through red blood cell membranes

Chain of hCA I (P00915 whole entry): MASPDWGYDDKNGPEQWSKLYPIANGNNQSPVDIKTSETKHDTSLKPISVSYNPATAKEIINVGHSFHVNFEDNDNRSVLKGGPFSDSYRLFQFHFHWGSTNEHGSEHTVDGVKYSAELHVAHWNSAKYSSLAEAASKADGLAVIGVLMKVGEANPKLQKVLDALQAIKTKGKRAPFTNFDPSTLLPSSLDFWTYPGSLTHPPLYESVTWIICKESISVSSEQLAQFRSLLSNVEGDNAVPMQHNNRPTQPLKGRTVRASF

NS(=O)(=O)c1ccc(CCNC(=S)Nc2ccc(-c3c4ccc(=O)cc-4oc4cc(O)ccc34)c(C(=O)O)c2)cc1 [5c, (4-Sulfamoylphenylethyl)thioureido fluorescein]
Ki (hCA I): 1300 nM
fluorescence signal (binding to cells) (MDCK-CA IX cells): detected only in the hypoxic MDCK-CA IX cells
acidosis (pHe) of hypoxic HeLa cells [1]: reduced
acidosis (pHe) of hypoxic SiHa cells [2]: reduced
binding to HeLa cells [3]: binds to hypoxic HeLa and SiHa cells
binding to SiHa cells [4]: binds to hypoxic HeLa and SiHa cells
[sulfonamide] in red blood cells, t = 30 min, HPLC (human red cells; 30 min, 3 mM sulfonamide in 5 mM Tris buffer pH 7.4, HPLC method): 0.4 µM
[sulfonamide] in red blood cells, t = 30 min, ES (human red cells; 30 min, 3 mM sulfonamide in 5 mM Tris buffer pH 7.4, electronic spectroscopy): 0.9 µM
[sulfonamide] in red blood cells, t = 60 min, HPLC (human red cells; 60 min, 3 mM sulfonamide in 5 mM Tris buffer pH 7.4, HPLC method): 0.6 µM
[sulfonamide] in red blood cells, t = 60 min, ES (human red cells; 60 min, 3 mM sulfonamide in 5 mM Tris buffer pH 7.4, electronic spectroscopy): 1.2 µM
[sulfonamide] in red blood cells, t = 48 h, HPLC (human red cells; 48 h, 3 mM sulfonamide in 5 mM Tris buffer pH 7.4, HPLC method): 10.4 µM
[sulfonamide] in red blood cells, t = 48 h, ES (human red cells; 48 h, 3 mM sulfonamide in 5 mM Tris buffer pH 7.4, electronic spectroscopy): 3.0 µM
membrane permeability at exposure times of 30-60 min (human red cells; human RBCs, 30-60 min, pH 7.4): decreased membrane permeability
membrane permeability after 48 hours of exposure (human red cells; human RBCs, 48 hours, pH 7.4): slightly more permeant
